For orientation: IC50 means the concentration needed to halve the response being measured. Higher therefore signals weaker potency in that assay.

For data set [1], the target named is T1, ATP-dependent translocase ABCB1 (Homo sapiens, UniProt P08183). The experiment in a line: TP_TRANSPORTER: inhibition of Digoxin transepithelial transport (basal to apical) (Digoxin: 5 uM) in Caco-2 cells. In kind it is functional, cell-based. In general terms: Caco-2 cells form a polarised layer with tight junctions and transporters.
T1 sequence (P08183 whole entry): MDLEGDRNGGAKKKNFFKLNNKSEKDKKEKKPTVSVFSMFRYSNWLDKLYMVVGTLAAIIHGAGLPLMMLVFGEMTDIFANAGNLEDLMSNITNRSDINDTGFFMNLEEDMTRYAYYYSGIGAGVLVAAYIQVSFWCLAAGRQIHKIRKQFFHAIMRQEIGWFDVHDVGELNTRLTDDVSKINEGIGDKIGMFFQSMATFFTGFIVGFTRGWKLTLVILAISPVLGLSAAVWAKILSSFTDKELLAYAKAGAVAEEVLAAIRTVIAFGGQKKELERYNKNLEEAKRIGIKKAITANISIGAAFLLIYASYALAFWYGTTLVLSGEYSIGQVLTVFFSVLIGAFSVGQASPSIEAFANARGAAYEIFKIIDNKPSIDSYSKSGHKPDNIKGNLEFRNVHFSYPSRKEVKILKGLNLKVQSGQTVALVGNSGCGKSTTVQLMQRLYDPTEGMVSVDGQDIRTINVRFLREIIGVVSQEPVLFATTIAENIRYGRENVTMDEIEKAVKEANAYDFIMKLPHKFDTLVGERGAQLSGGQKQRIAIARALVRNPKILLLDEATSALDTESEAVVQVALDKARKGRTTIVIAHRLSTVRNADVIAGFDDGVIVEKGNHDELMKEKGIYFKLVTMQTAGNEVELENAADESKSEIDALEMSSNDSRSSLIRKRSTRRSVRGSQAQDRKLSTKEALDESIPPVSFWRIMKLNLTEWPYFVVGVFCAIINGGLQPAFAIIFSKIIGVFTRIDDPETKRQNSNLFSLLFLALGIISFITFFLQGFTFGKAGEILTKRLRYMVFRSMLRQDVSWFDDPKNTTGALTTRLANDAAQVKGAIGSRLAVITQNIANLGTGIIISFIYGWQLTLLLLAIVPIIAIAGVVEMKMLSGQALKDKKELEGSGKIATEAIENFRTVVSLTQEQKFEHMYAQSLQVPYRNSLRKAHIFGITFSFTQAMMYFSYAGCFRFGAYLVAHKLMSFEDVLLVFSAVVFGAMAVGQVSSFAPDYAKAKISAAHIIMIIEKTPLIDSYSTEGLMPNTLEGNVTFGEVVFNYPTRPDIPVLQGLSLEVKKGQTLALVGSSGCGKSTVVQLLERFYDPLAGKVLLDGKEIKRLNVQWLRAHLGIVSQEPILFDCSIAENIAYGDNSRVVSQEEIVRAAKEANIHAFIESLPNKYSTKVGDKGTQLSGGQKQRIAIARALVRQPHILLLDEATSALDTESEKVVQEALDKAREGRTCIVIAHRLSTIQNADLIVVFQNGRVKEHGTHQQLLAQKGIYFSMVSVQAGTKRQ
For data set [2], the target named is T1, ATP-dependent translocase ABCB1. The experiment in a line: TP_TRANSPORTER: transepithelial transport (basal to apical) in MDR1-expressing LLC-PK1 cells. The settings on record: pig. Type of data set: functional, cell-based.

Consider `Cc1c(OCC(F)(F)F)ccnc1C[S+]([O-])c1nc2ccccc2[nH]1` (stereo unspecified) [LANSOPRAZOLE], for which, in data set [1], half-maximal inhibition (IC50) required 62.8 µM. Moreover, the Activity result in data set [2] was “substrate [+]”.

As for `COc1ccc2[nH]c([S+]([O-])Cc3ncc(C)c(OC)c3C)nc2c1` (stereo unspecified) [OMEPRAZOLE], half-maximal inhibition in data set [1] (IC50) required 17.7 µM. Besides, the Activity result in data set [2] is “substrate [+]”.

`COc1ccnc(C[S+]([O-])c2nc3ccc(OC(F)F)cc3[nH]2)c1OC` (stereo unspecified) [PANTOPRAZOLE] returned an IC50 in data set [1] of 17.9 µM. Further, the Activity result in data set [2] is “substrate [+]”.

Values taken from ChEMBL document CHEMBL2074158, “Interaction of omeprazole, lansoprazole and pantoprazole with P-glycoprotein” (Naunyn Schmiedebergs Arch Pharmacol, 2001).
